According to PubChem BioAssay AID1963874 (Molecular Pharmacology Branch, DTP, NCI, 2024):

Test system: 253994-281-T-J1-PDC KRAS-mutant spheroids with HUVEC/MSC, viability
Experiment: Anticancer human tumor 253994-281-T-J1-PDC patient-derived colorectal carcinoma cell line growth inhibition [KRAS2]
Settings: for IC50: curve of first compound; for viability, T/C: stronger effect = lower value
How it was run: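 KRAS-mutant tumor cells were grown as spheroids with HUVEC endothelial cells and human MSCs as stroma. Targeted agents were tested alone and with KRAS pathway inhibitors. Doses started at or near clinical Cmax, or 10 microM, descending half-log.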

[1] = second compound 0.1 µM, first compound 0.01 µM
[2] = second compound 0.1 µM, first compound 0.0316 µM
[3] = second compound 0.1 µM, first compound 0.1 µM
[4] = second compound 0.1 µM, first compound 0.316 µM
[5] = second compound 0.1 µM, first compound 1 µM
[6] = second compound 0.1 µM, first compound 3.16 µM
[7] = second compound 0.316 µM, first compound 0.01 µM
[8] = second compound 0.316 µM, first compound 0.0316 µM
[9] = second compound 0.316 µM, first compound 0.1 µM
[10] = second compound 0.316 µM, first compound 0.316 µM
[11] = second compound 0.316 µM, first compound 1 µM
[12] = second compound 0.316 µM, first compound 3.16 µM
[13] = second compound 1 µM, first compound 0.01 µM
[14] = second compound 1 µM, first compound 0.0316 µM
[15] = second compound 1 µM, first compound 0.1 µM
[16] = second compound 1 µM, first compound 0.316 µM
[17] = second compound 1 µM, first compound 1 µM
[18] = second compound 1 µM, first compound 3.16 µM
[19] = second compound 3.16 µM, first compound 0.01 µM
[20] = second compound 3.16 µM, first compound 0.0316 µM
[21] = second compound 3.16 µM, first compound 0.1 µM
[22] = second compound 3.16 µM, first compound 0.316 µM
[23] = second compound 3.16 µM, first compound 1 µM
[24] = second compound 3.16 µM, first compound 3.16 µM
[25] = second compound 10 µM, first compound 0.01 µM
[26] = second compound 10 µM, first compound 0.0316 µM
[27] = second compound 10 µM, first compound 0.1 µM
[28] = second compound 10 µM, first compound 0.316 µM
[29] = second compound 10 µM, first compound 1 µM
[30] = second compound 10 µM, first compound 3.16 µM
[31] = second compound 0.1 µM, first compound 10 µM
[32] = second compound 0.316 µM, first compound 10 µM
[33] = second compound 1 µM, first compound 10 µM
[34] = second compound 3.16 µM, first compound 10 µM
[35] = second compound 10 µM, first compound 10 µM
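Further: spheroids exposed to agents for seven days before readout.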
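Wherever viability, T/C is given: percent of DMSO vehicle control viability.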

Row | SMILES | IC50 (second compound 0.1 µM) [nM] | IC50 (second compound 0.316 µM) [nM] | IC50 (second compound 1 µM) [nM] | IC50 (second compound 3.16 µM) [nM] | IC50 (second compound 10 µM) [nM] | viability, T/C [2] [%] | viability, T/C [3] [%] | viability, T/C [4] [%] | viability, T/C [5] [%] | viability, T/C [6] [%] | viability, T/C [8] [%] | viability, T/C [9] [%] | viability, T/C [10] [%] | viability, T/C [11] [%] | viability, T/C [12] [%] | viability, T/C [14] [%] | viability, T/C [15] [%] | viability, T/C [16] [%] | viability, T/C [17] [%] | viability, T/C [18] [%] | further results
1 | CC1COCCN1c1cc(-c2ccnn2C)c2ccnc(-c3ccn[nH]3)c2n1 (stereo not given) + CNCc1ccccc1-c1csc(C(C)Nc2nc(C)nc3cc(OC)c(OC)cc23)c1 | > 3160 | > 3160 | 296 | < 10 | < 10 | 106 | 76.1 | 50.7 | 60.2 | 52.4 | 91.5 | 73.5 | 46.5 | 55.9 | 57.1 | 85.5 | 67.5 | 47 | 54.8 | 42.1 | viability, T/C [1]: 85.8%; viability, T/C [7]: 108%; viability, T/C [13]: 89.5%; viability, T/C [19]: 42.9%; viability, T/C [20]: 42%; viability, T/C [21]: 27.3%; viability, T/C [22]: 17.9%; viability, T/C [23]: 24%; viability, T/C [24]: 14.9%; viability, T/C [25]: 0.59%; viability, T/C [26]: 0.21%; viability, T/C [27]: 0.17%; viability, T/C [28]: 0.19%; viability, T/C [29]: 0.16%; viability, T/C [30]: 0.23%
2 | CC1OCC2(CCN(c3cnc(Sc4ccnc(N)c4Cl)c(N)n3)CC2)C1N (stereo not given) + CNCc1ccccc1-c1csc(C(C)Nc2nc(C)nc3cc(OC)c(OC)cc23)c1 | > 10000 | > 10000 | 4610 | < 31.6 | < 31.6 | 93 | 96.7 | 93.3 | 87.9 | 79.1 | 94.7 | 83.9 | 85.6 | 82.5 | 68.1 | 90.3 | 95.2 | 78.7 | 64.8 | 60.9 | viability, T/C [31]: 51.8%; viability, T/C [32]: 51.8%; viability, T/C [33]: 36.5%; viability, T/C [20]: 43.8%; viability, T/C [21]: 28%; viability, T/C [22]: 31.1%; viability, T/C [23]: 31.2%; viability, T/C [24]: 24.8%; viability, T/C [34]: 0.81%; viability, T/C [26]: 0.21%; viability, T/C [27]: 0.25%; viability, T/C [28]: 0.22%; viability, T/C [29]: 0.19%; viability, T/C [30]: 0.23%; viability, T/C [35]: 0.21%
3 | Cn1nccc1Nc1nccc(-c2cc3c(s2)C(C)(C)N(CCN2CCOCC2)C3=O)n1 + CNCc1ccccc1-c1csc(C(C)Nc2nc(C)nc3cc(OC)c(OC)cc23)c1 | 2140 | 1520 | 863 | < 31.6 | < 31.6 | 97.5 | 102 | 87.6 | 74.6 | 37.1 | 106 | 89.2 | 84 | 60.7 | 31.8 | 87.7 | 73.2 | 67.9 | 49.8 | 24 | viability, T/C [31]: 23.8%; viability, T/C [32]: 19.4%; viability, T/C [33]: 10%; viability, T/C [20]: 44.4%; viability, T/C [21]: 46.3%; viability, T/C [22]: 29.3%; viability, T/C [23]: 0.46%; viability, T/C [24]: 0.39%; viability, T/C [34]: 0.26%; viability, T/C [26]: 0.25%; viability, T/C [27]: 0.16%; viability, T/C [28]: 0.15%; viability, T/C [29]: 0.14%; viability, T/C [30]: 0.39%; viability, T/C [35]: 0.2%
4 | CC(=O)OC12COC1CC(O)C1(C)C(=O)C(O)C3=C(C)C(OC(=O)C(O)C(NC(=O)OC(C)(C)C)c4ccccc4)CC(O)(C(OC(=O)c4ccccc4)C21)C3(C)C (stereo not given) + COc1cc2nc(C)nc(NC(C)c3cc(N)cc(C(F)(F)F)c3)c2cc1OC1CCOC1 | 16.7 | < 10 | < 10 | < 10 | < 10 | 35.7 | 26.1 | 20.6 | 22.6 | 19.6 | 26.9 | 21.4 | 19.7 | 18.8 | 19.1 | 41.4 | 21.6 | 19.9 | 19.7 | 22.8 | viability, T/C [1]: 61.3%; viability, T/C [7]: 46.2%; viability, T/C [13]: 35.9%; viability, T/C [19]: 25.8%; viability, T/C [20]: 21.6%; viability, T/C [21]: 17.4%; viability, T/C [22]: 18%; viability, T/C [23]: 20.1%; viability, T/C [24]: 20.6%; viability, T/C [25]: 20.1%; viability, T/C [26]: 22.4%; viability, T/C [27]: 19.2%; viability, T/C [28]: 23.3%; viability, T/C [29]: 20.2%; viability, T/C [30]: 25.4%
